According to ChEMBL document CHEMBL3351956, “Design and synthesis of novel 1,2,3-triazole-pyrimidine hybrids as potential anticancer agents” (Eur J Med Chem, 2014):

Assays:
Assay type in all cases: functional, cell-based
[1] = Cytotoxicity against mouse B16F10 cells assessed as inhibition of proliferation after 72 hrs by MTT assay; details: B16-F10, 72 h
[2] = Cytotoxicity against human EC109 cells assessed as inhibition of proliferation after 72 hrs by MTT assay; details: ECa-109, 72 h
[3] = tested on: MGC-803; assay: Cytotoxicity against human MGC803 cells assessed as inhibition of proliferation after 72 hrs by MTT assay; details: MGC-803, 72 h
[4] = tested on: MCF7; assay: Cytotoxicity against human MCF7 cells assessed as inhibition of proliferation after 72 hrs by MTT assay; details: MCF7, 72 h

In the case of O=c1[nH]cc(F)c(=O)[nH]1 [FLUOROURACIL], the IC50 [1] is reported as 0.87 µM, the IC50 [2] is reported as 10.8 µM and the IC50 [3] is reported as 7.69 µM. For the same compound, the IC50 [4] was 8.93 µM.

COc1ccc(Nc2nc(SCc3cn(Cc4ccccc4Cl)nn3)nc(-c3ccc(C(C)C)cc3)c2C#N)cc1 gave an IC50 [1] of 2.69 µM, an IC50 [2] of 3.58 µM and an IC50 [3] of over 64 µM. It also gave an IC50 [4] of 10.2 µM.
